PubChem BioAssay AID330 (DTP/NCI, 2004)
Where “and” joins values, the source holds several entries; their conditions need not be identical. Equal entries are not always repeated. Toxic doses and inconclusive results are not listed. Rule for the calls: active = survival T/C of 150% or more; inactive = T/C below 125% in these data.

Tested on: P388 leukemia ip, CD2F1 mice, survival T/C
Assay: NCI In Vivo Anticancer Drug Screen. Data for tumor model P388 Leukemia (intraperitoneal) in CD2F1 (CDF1) mice
Settings: endpoint: median survival time, higher = longer survival
Summary of the method: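 Mice carrying the transplanted tumor received test compound or vehicle. Survival was recorded in each group, and the value is the treated-group measurement divided by that of the vehicle-treated control group.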

[1] = dose: 50.0 mg/kg/injection, schedule: Q01DX005 (ip), vehicle: saline with Tween-80
[2] = dose: 100.0 mg/kg/injection, schedule: Q01DX005 (ip), vehicle: saline with Tween-80
[3] = dose: 12.5 mg/kg/injection, schedule: Q01DX009 (ip), vehicle: other
[4] = dose: 100.0 mg/kg/injection, schedule: Q01DX009 (ip), vehicle: other
[5] = dose: 200.0 mg/kg/injection, schedule: Q01DX009 (ip), vehicle: other
[6] = dose: 50.0 mg/kg/injection, schedule: Q01DX009 (ip), vehicle: saline with Tween-80
[7] = dose: 25.0 mg/kg/injection, schedule: Q01DX009 (ip), vehicle: saline with Tween-80
[8] = dose: 100.0 mg/kg/injection, schedule: Q01DX009 (ip), vehicle: saline with Tween-80
[9] = dose: 200.0 mg/kg/injection, schedule: Q01DX009 (ip), vehicle: saline with Tween-80
[10] = dose: 60.0 mg/kg/injection, schedule: Q01DX005 (ip), vehicle: saline with Tween-80
[11] = dose: 120.0 mg/kg/injection, schedule: Q01DX005 (ip), vehicle: saline with Tween-80
[12] = dose: 240.0 mg/kg/injection, schedule: Q01DX005 (ip), vehicle: saline with Tween-80
[13] = dose: 60.0 mg/kg/injection, schedule: Q01DX005 (ip), vehicle: Klucel (hydroxypropylcellulose) (HPC)
[14] = dose: 120.0 mg/kg/injection, schedule: Q01DX005 (ip), vehicle: Klucel (hydroxypropylcellulose) (HPC)
[15] = dose: 240.0 mg/kg/injection, schedule: Q01DX005 (ip), vehicle: Klucel (hydroxypropylcellulose) (HPC)

Measured: T/C

COCCN[C@@H]1C[C@@](C)(O)Cc2cc3c(c(O)c21)C(=O)c1c(O)cc2c(c1C3=O)O[C@H]1O[C@]2(C)[C@@H](O)[C@H](N(C)C)[C@H]1O
active: dose: 60.0 mg/kg/injection, schedule: Q01DX009 (ip), vehicle: other 154 % of control
inactive: dose: 2.5 mg/kg/injection, schedule: Q01DX009 (ip), vehicle: other 105 % of control | dose: 5.0 mg/kg/injection, schedule: Q01DX009 (ip), vehicle: other 105 % of control | dose: 7.5 mg/kg/injection, schedule: Q01DX009 (ip), vehicle: other 120 % of control | dose: 10.0 mg/kg/injection, schedule: Q01DX009 (ip), vehicle: other 111 % of control

C=Cc1cc(=O)oc2cc(OC)ccc12
inactive: dose: 12.5 mg/kg/injection, schedule: Q01DX005 (ip), vehicle: saline with Tween-80 106 % of control and 94 % of control | dose: 25.0 mg/kg/injection, schedule: Q01DX005 (ip), vehicle: saline with Tween-80 108 % of control and 95 % of control | [1] 105 % of control and 115 % of control and 121 % of control | [2] 105 % of control

O=C(O)CNOCc1ccccc1
inactive: [3] 95 % of control | dose: 25.0 mg/kg/injection, schedule: Q01DX009 (ip), vehicle: other 102 % of control | dose: 50.0 mg/kg/injection, schedule: Q01DX009 (ip), vehicle: other 102 % of control | [4] 93 % of control | [5] 89 % of control

CCC1CN2CCc3cc(OC)c(OC)cc3C2CC1C#N (stereo not given)
inactive: [6] 93 % of control

Nc1nc(Cl)cc(Cl)n1
inactive: dose: 12.5 mg/kg/injection, schedule: Q01DX009 (ip), vehicle: Klucel (hydroxypropylcellulose) (HPC) 94 % of control | dose: 25.0 mg/kg/injection, schedule: Q01DX009 (ip), vehicle: Klucel (hydroxypropylcellulose) (HPC) 107 % of control | dose: 50.0 mg/kg/injection, schedule: Q01DX009 (ip), vehicle: Klucel (hydroxypropylcellulose) (HPC) 108 % of control | dose: 100.0 mg/kg/injection, schedule: Q01DX009 (ip), vehicle: Klucel (hydroxypropylcellulose) (HPC) 99 % of control

CCOC(CNc1cnc(NC(C)=O)[nH]c1=O)OCC
inactive: [7] 102 % of control | [6] 104 % of control | [8] 102 % of control | [9] 112 % of control

O=C1CSC(c2ccccn2)N1CCN1C(=O)CSC1c1ccccn1 (stereo not given)
inactive: dose: 50.0 mg/kg/injection, schedule: Q01DX005 (ip), vehicle: Klucel (hydroxypropylcellulose) (HPC) 94 % of control | dose: 100.0 mg/kg/injection, schedule: Q01DX005 (ip), vehicle: Klucel (hydroxypropylcellulose) (HPC) 96 % of control | dose: 100.0 mg/kg/injection, schedule: Q04DX002 (ip), vehicle: saline with Tween-80 97 % of control | dose: 200.0 mg/kg/injection, schedule: Q01DX005 (ip), vehicle: Klucel (hydroxypropylcellulose) (HPC) 97 % of control | dose: 200.0 mg/kg/injection, schedule: Q04DX002 (ip), vehicle: saline with Tween-80 102 % of control | dose: 400.0 mg/kg/injection, schedule: Q04DX002 (ip), vehicle: saline with Tween-80 93 % of control

O=C(O)C1CCCCC1c1c2ccc(=O)c(O)c-2oc2c(O)c(O)ccc12 (stereo not given)
inactive: dose: 15.0 mg/kg/injection, schedule: Q01DX005 (ip), vehicle: saline with Tween-80 102 % of control | dose: 30.0 mg/kg/injection, schedule: Q01DX005 (ip), vehicle: saline with Tween-80 102 % of control and 105 % of control | [10] 110 % of control and 111 % of control and 119 % of control | [11] 107 % of control and 111 % of control and 112 % of control | [12] 121 % of control

FC(F)(F)c1cc(-n2c(-c3ccccc3)nc(=S)c3c2CCCC3)cc(C(F)(F)F)c1
inactive: [6] 100 % of control | [8] 95 % of control | [9] 94 % of control

C#CCOC1CC(C)(O)Cc2cc3c(c(O)c21)C(=O)c1c(O)cc2c(c1C3=O)OC1OC2(C)C(O)C(N(C)C)C1O (stereo not given)
inactive: dose: 20.0 mg/kg/injection, schedule: Q01DX009 (ip), vehicle: other 89 % of control

Cc1cc(NC(=O)COCC(=O)O)no1
inactive: [13] 101 % of control | [14] 101 % of control | [15] 92 % of control

CCOc1nc(N)nc(C)c1N=Nc1cccc([N+](=O)[O-])c1
inactive: [13] 100 % of control | [14] 94 % of control | [15] 103 % of control

CCOC(=O)C(c1ccccc1)C(NC(C)=O)(C(=O)OCC)C(=O)OCC (stereo not given)
inactive: [10] 102 % of control | [11] 102 % of control | [12] 105 % of control

Cn1c(-c2ccccc2)c/c(=N\NS(C)(=O)=O)c2cc(S(=O)(=O)O)ccc21
inactive: [6] 96 % of control | [8] 91 % of control | [9] 98 % of control

COC(=O)/C=C\SC(=S)C1CCCC1=N (stereo not given)
inactive: [6] 98 % of control | [8] 94 % of control | [9] 91 % of control

FC(F)(F)c1ccc2nc3c(nc2c1)-c1ccc(Br)c2cccc-3c12
inactive: dose: 50.0 mg/kg/injection, schedule: Q01DX009 (ip), vehicle: saline 115 % of control | dose: 100.0 mg/kg/injection, schedule: Q01DX009 (ip), vehicle: saline 101 % of control | dose: 200.0 mg/kg/injection, schedule: Q01DX009 (ip), vehicle: saline 99 % of control

CN1/C(=C2\C=CC=C\C2=N/S(=O)(=O)c2ccccc2)Sc2ccccc21
inactive: dose: 100.0 mg/kg/injection, schedule: Q04DX003 (ip), vehicle: saline 104 % of control | dose: 200.0 mg/kg/injection, schedule: Q04DX003 (ip), vehicle: saline 99 % of control | dose: 400.0 mg/kg/injection, schedule: Q04DX003 (ip), vehicle: saline 94 % of control

COc1ccc(-c2cc(=O)c3ccc4cc(OC)c(OC)cc4c3o2)cc1
inactive: [3] 91 % of control | [4] 88 % of control | [5] 91 % of control

C#CCn1c2c(c3ccccc3c1=O)C(=O)c1ccccc1-2
inactive: [1] 88 % of control | [2] 88 % of control | dose: 200.0 mg/kg/injection, schedule: Q01DX005 (ip), vehicle: saline with Tween-80 101 % of control

Cc1ncc(CO)c(C2NC(C(=O)O)CS2)c1O (stereo not given)
inactive: [10] 98 % of control | [11] 98 % of control | [12] 100 % of control

Cc1nsnc1CCO
inactive: dose: 100.0 mg/kg/injection, schedule: Q04DX002 (ip), vehicle: saline 102 % of control | dose: 200.0 mg/kg/injection, schedule: Q04DX002 (ip), vehicle: saline 104 % of control | dose: 400.0 mg/kg/injection, schedule: Q04DX002 (ip), vehicle: saline 99 % of control

O=N[O-].O=N[O-].O=N[O-].[Co+3].[NH-]CC[N-]CC[NH-]
inactive: dose: 12.5 mg/kg/injection, schedule: Q01DX009 (ip), vehicle: saline with Tween-80 95 % of control | [7] 104 % of control | [6] 114 % of control

CC(C)=CC(=O)OC1C2C(C)=CC(=O)C(O)C2(C)C2C3(O)OCC24C(CC(=O)OC14)C(C)C3O (stereo not given)
active: dose: 0.5 mg/kg/injection, schedule: Q01DX009 (ip), vehicle: distilled water + Tween-80 161 % of control | dose: 1.0 mg/kg/injection, schedule: Q01DX009 (ip), vehicle: distilled water + Tween-80 169 % of control and 198 % of control | dose: 2.0 mg/kg/injection, schedule: Q01DX009 (ip), vehicle: distilled water + Tween-80 180 % of control and 191 % of control

CCOC(=O)NNc1nc(-c2ccccc2)nc2nonc12
inactive: [7] 91 % of control | [8] 110 % of control

C1=C(/C=C2\CCCc3c(-c4ccccc4)cc(-c4ccccc4)[o+]c32)CCC/C1=C\C1=C2OC(c3ccccc3)=CC(c3ccccc3)=C2CCC1
inactive: [10] 102 % of control | [11] 93 % of control | [12] 87 % of control

CN(C)c1ccc2[nH]cc(C(=O)O)c(=O)c2c1
inactive: dose: 7.5 mg/kg/injection, schedule: Q01DX005 (ip), vehicle: Klucel (hydroxypropylcellulose) (HPC) 99 % of control | dose: 15.0 mg/kg/injection, schedule: Q01DX005 (ip), vehicle: Klucel (hydroxypropylcellulose) (HPC) 102 % of control | dose: 30.0 mg/kg/injection, schedule: Q01DX005 (ip), vehicle: Klucel (hydroxypropylcellulose) (HPC) 102 % of control

NC(=O)CCNC(=O)OCc1ccccc1
inactive: dose: 12.5 mg/kg/injection, schedule: Q01DX009 (ip), vehicle: distilled water + Tween-80 105 % of control | dose: 25.0 mg/kg/injection, schedule: Q01DX009 (ip), vehicle: distilled water + Tween-80 103 % of control | dose: 50.0 mg/kg/injection, schedule: Q01DX009 (ip), vehicle: distilled water + Tween-80 103 % of control | dose: 100.0 mg/kg/injection, schedule: Q01DX009 (ip), vehicle: distilled water + Tween-80 104 % of control | dose: 200.0 mg/kg/injection, schedule: Q01DX009 (ip), vehicle: distilled water + Tween-80 100 % of control
